Where two headings read alike, the source gives them in different places.
Biological target: recombinant eIF4E (Homo sapiens (Human), UniProt P06730)
Assay: Fluorescence polarization competition assay for eIF4E binding potency
Method in brief: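 Competitive displacement format: compounds compete with a fluorescent m7GDP tracer (20 nM) for 75 nM recombinant eIF4E. Incubation is 30 min at room temperature, protected from light, with 1% DMSO. Polarization read gives IC50 over eight 3-fold concentrations.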

[1] = inhibition of eIF4E/EDA-m7GDP-ATTO-550 binding by 50%, Table 4B calculated values, read-out: IC50
[2] = fluorescence polarization competition, 75 nM recombinant eIF4E, 20 nM EDA-m7GDP-ATTO-550, IC50 class, read-out: elF4E FP
[3] = inhibition of eIF4E/EDA-m7GDP-ATTO-550 binding, calculated IC50 values, Table 4B, read-out: IC50

Sequence of recombinant eIF4E (P06730 whole entry): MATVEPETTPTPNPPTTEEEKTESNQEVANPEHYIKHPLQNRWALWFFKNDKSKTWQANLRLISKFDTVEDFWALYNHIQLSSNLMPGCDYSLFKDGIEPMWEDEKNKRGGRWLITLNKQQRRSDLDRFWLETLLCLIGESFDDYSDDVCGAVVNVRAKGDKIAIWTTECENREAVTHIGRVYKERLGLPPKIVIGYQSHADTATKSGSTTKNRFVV

Q: Which IC50 [1] does the source give for `CCc1cc(-c2cc(Cl)ccc2OCCn2c(C)nc3cc(CN(C)C)c(OC(F)F)c(C#N)c3c2=O)c2scc(C(=O)O)c2n1` [compound 896] here?
A: The IC50 was 1.57 nM.

Q: What does the source list for `Cc1cc(-c2cc(Cl)ccc2OCCn2c(C)nc3cc(C(F)(F)F)c(-c4cnsc4)c(C#N)c3c2=O)c2scc(C(=O)O)c2n1` [compound 347]?
A: IC50 [2]: < 50 nM; IC50 [1]: 32.1 nM

Q: How did the IC50 [3] turn out when `Cc1nc2cc(S(=O)(=O)N(C)C)c(Cl)c(C#N)c2c(=O)n1CCOc1ccc(Cl)cc1-c1ccnc2c(C(=O)O)csc12` [compound 1948] was run?
A: The IC50 was 35.6 nM.

Q: With `Cc1nc2cnc(N(C)C3CCN(C4CC(F)(F)C4)CC3)c(C#N)c2c(=O)n1CC#Cc1ccc(Cl)cc1-c1ccnc2c(C(=O)NS(=O)(=O)c3cccnc3)csc12` [compound 1110] as the molecule, how does the IC50 [2] read?
A: The IC50 was under 50 nM.

Q: What about the IC50 [1] of the same molecule?
A: The IC50 was 7.2 nM.

Q: Which results are given for `N#Cc1c(F)cc(CCOc2ccc(Cl)cc2-c2cccc(C(=O)O)c2)c2c(=O)[nH]c(Nc3ccccc3)nc12` [compound 174]?
A: IC50 [2]: 50 to 1000 nM; IC50 [1]: 52.1 nM

Q: How did the IC50 [3] turn out when `Cc1nc2cnc(N(C)C3CCN([C@H]4C[C@H](F)C4)CC3)c(C#N)c2c(=O)n1CC#Cc1ccc(Cl)cc1-c1ccnc2c(C(=O)NS(=O)(=O)c3ccccn3)csc12` [compound 1793] was run?
A: The IC50 was 7.29 nM.

Q: What does the source list for `Cc1nc2c(N(C)C3CC4CCC(C3)N4C)ncc(C#N)c2c(=O)n1CCOc1ccc(Cl)cc1-c1ccnc2c(C(=O)O)csc12` (centres unmarked) [compound 863]?
A: IC50 [2]: < 50 nM; IC50 [1]: 45.5 nM

Q: Which IC50 [3] does the source give for `Cc1nc2cnc(N(C)C3CCN(C4(CF)CC4)CC3)c(C#N)c2c(=O)n1CC#Cc1ccc(Cl)cc1-c1ccnc2c(C(=O)O)csc12` [compound 1529] here?
A: Its IC50 is 20.1 nM.

Q: `Cc1nc2cnc(N(C)[C@H]3C[C@H](N(C)CCF)C3)c(C#N)c2c(=O)n1CC#Cc1ccc(Cl)cc1-c1ccnc2c(C(=O)O)csc12` [compound 1532] was tested. Which IC50 [3] did it give?
A: Its IC50 is 11.2 nM.

Q: With `COc1ccc(-c2csc3c(-c4cc(Cl)ccc4OCCn4c(C)nc5cnc(N6CCN(C)CC6)c(C#N)c5c4=O)ccnc23)cc1` [compound 1268] as the molecule, how does the IC50 [3] read?
A: Its IC50 is 472 nM.

Q: Which results are given for `Cc1cc(-c2cc(Cl)ccc2OCCn2c(C)nc3cnc(C4CC4)c(C#N)c3c2=O)c2scc(C(=O)O)c2c1C` [compound 771]?
A: IC50 [2]: < 50 nM; IC50 [1]: 12.8 nM

Q: For `Cc1nc2cc(C(F)(F)F)c(OCC(F)(F)F)c(C#N)c2c(=O)n1CCOc1ccc(Cl)cc1-c1ccnc2c(C(=O)O)csc12` [compound 1153], which IC50 [2] is on record?
A: Its IC50 is under 50 nM.

Q: What about the IC50 [1] of the same molecule?
A: The IC50 was 38 nM.

Q: How did the IC50 [2] turn out when `Cc1cc(-c2cc(Cl)ccc2OCCn2c(C)nc3cc(C(F)(F)F)c(N4CCN(C)CC4)c(C#N)c3c2=O)c2scc(C(=O)OC(C)OC(=O)OC3CCCCC3)c2n1` (centres unmarked) [compound 1082] was run?
A: Its IC50 is 50 to 1000 nM.

Q: And the IC50 [1]?
A: The IC50 was 903 nM.

Q: `Cc1cc(-c2cc(Cl)ccc2OCCn2c(C)nc3c(F)cc(CCN(C)C)c(C#N)c3c2=O)c2scc(C(=O)O)c2n1` [compound 608] was tested. Which IC50 [2] did it give?
A: The IC50 was under 50 nM.

Q: What about the IC50 [1] of the same molecule?
A: The IC50 was 18.6 nM.

Q: For `CCN(c1ncc2nc(C)n(CC#Cc3ccc(Cl)cc3-c3ccnc4c(C(=O)NS(=O)(=O)c5ccncc5)csc34)c(=O)c2c1C#N)C1CCN(C2CC(F)(F)C2)CC1` [compound 1838], which IC50 [3] is on record?
A: Its IC50 is 12.3 nM.

Q: Which results are given for `CCc1cc(-c2cc(Cl)ccc2OCCn2c(C)nc3cnc(N4CCC(O)C4)c(C#N)c3c2=O)c2scc(C(=O)O)c2n1` (centres unmarked) [compound 1235]?
A: IC50 [2]: < 50 nM; IC50 [3]: 6.32 nM

Q: With `Cc1nc2cnc(N(C)C3CCN(C4(C(F)F)CC4)CC3)c(C#N)c2c(=O)n1CCOc1ccc(Cl)cc1-c1ccnc2c(C(=O)O)csc12` [compound 1430] as the molecule, how does the IC50 [3] read?
A: The IC50 was 22.8 nM.

Q: With `Cc1nc2cnc(N(C)C3CCN(CC(F)(F)F)CC3)c(C#N)c2c(=O)n1CC#Cc1ccc(Cl)cc1-c1ccnc2c(C(=O)NS(=O)(=O)c3cscn3)csc12` [compound 1675] as the molecule, how does the IC50 [3] read?
A: Its IC50 is 4.11 nM.

Q: `N#Cc1ccc(C#N)c2c(=O)n(CCOc3ccc(Cl)cc3-c3ccnc4c(C(=O)O)csc34)c(C(F)F)nc12` [compound 1943] was tested. Which IC50 [3] did it give?
A: The IC50 was 42.4 nM.

Q: With `CCC(F)(F)CN1CCC(N(C)c2ncc3nc(C)n(CC#Cc4ccc(Cl)cc4-c4ccnc5c(C(=O)O)csc45)c(=O)c3c2C#N)CC1` [compound 1502] as the molecule, how does the IC50 [3] read?
A: The IC50 was 26.2 nM.

Q: With `Cc1nc2cnc(N3CC4(C3)CN(C3CCC3)C4)c(C#N)c2c(=O)n1CCOc1ccc(Cl)cc1-c1ccnc2c(C(=O)NS(C)(=O)=O)csc12` [compound 1512] as the molecule, how does the IC50 [3] read?
A: The IC50 was 12.2 nM.

Q: `Cc1cc(-c2cc(Cl)ccc2OCCn2c(C)nc3cnc(-c4ccccc4Cl)c(C#N)c3c2=O)c2scc(C(=O)O)c2n1` [compound 947] was tested. Which IC50 [2] did it give?
A: The IC50 was under 50 nM.

Q: And the IC50 [1]?
A: The IC50 was 23.7 nM.

Q: Which results are given for `Cc1nc2c(F)cc(S(=O)(=O)N(C)C)c(C#N)c2c(=O)n1CCOc1ccc(Cl)cc1-c1ccnc2c(C(=O)O)csc12` [compound 288]?
A: IC50 [2]: < 50 nM; IC50 [1]: 46.1 nM

Q: Which IC50 [2] does the source give for `Cc1nc2cc(Cl)c3c(cnn3C)c2c(=O)n1CCOc1ccc(Cl)cc1-c1ccnc2c(C(=O)O)csc12` [compound 720] here?
A: The IC50 was 50 to 1000 nM.

Q: What about the IC50 [1] of the same molecule?
A: The IC50 was 199 nM.

Q: For `Cc1nc2cnc(N3C[C@@H](C)N(CC(F)F)[C@@H](C)C3)c(C#N)c2c(=O)n1CCOc1ccc(Cl)cc1-c1ccnc2c(C(=O)O)csc12` [compound 1350], which IC50 [3] is on record?
A: Its IC50 is 35.1 nM.

Q: With `Cc1nc2cc(C(F)(F)F)cc(C(F)F)c2c(=O)n1CCOc1ccc(Cl)cc1-c1ccnc2c(C(=O)O)csc12` [compound 220] as the molecule, how does the IC50 [2] read?
A: Its IC50 is 50 to 1000 nM.

Q: And the IC50 [1]?
A: Its IC50 is 213 nM.

Q: With `Cc1cc(-c2cc(Cl)ccc2OCCn2c(C)nc3cc(C(F)(F)F)c(CN4CC5CCC(C4)N5C)c(C#N)c3c2=O)c2scc(C(=O)O)c2n1` [compound 740] as the molecule, how does the IC50 [2] read?
A: The IC50 was under 50 nM.

Q: And the IC50 [1]?
A: Its IC50 is 39.2 nM.

Q: Which IC50 [2] does the source give for `Cc1nc2c(C#N)c(C(F)(F)F)cc(C#N)c2c(=O)n1CCOc1ccc(Cl)cc1-c1ccnc2c(C(=O)O)csc12` [compound 210] here?
A: The IC50 was 50 to 1000 nM.

Q: What about the IC50 [1] of the same molecule?
A: Its IC50 is 91 nM.

Q: How did the IC50 [3] turn out when `Cc1cc(-c2cc(Cl)ccc2OCCn2c(C)nc3cc(C(F)(F)F)c(Cl)nc3c2=O)c2scc(C(=O)O)c2n1` [compound 1978] was run?
A: The IC50 was 25.3 nM.

Q: `Cc1nc2cnc(N3CCN(CCS(C)(=O)=O)CC3)c(C#N)c2c(=O)n1CCOc1ccc(Cl)cc1-c1ccnc2c(C(=O)O)csc12` [compound 1339] was tested. Which IC50 [3] did it give?
A: The IC50 was 36.4 nM.

Q: For `CCOc1c(C(F)(F)F)cc2nc(C)n(CCOc3ccc(Cl)cc3-c3cc(C)nc4c(C(=O)O)csc34)c(=O)c2c1C#N` [compound 1073], which IC50 [2] is on record?
A: Its IC50 is 50 to 1000 nM.

Q: And the IC50 [1]?
A: The IC50 was 58.1 nM.

Q: How did the IC50 [3] turn out when `Cc1nc2cnc(C3CN(C)CCO3)c(C#N)c2c(=O)n1CCOc1ccc(Cl)cc1-c1ccnc2c(C(=O)O)csc12` (centres unmarked) [compound 1330] was run?
A: The IC50 was 13 nM.

Q: How did the IC50 [3] turn out when `Cc1nc2cnc(N3CCN(CCOC(F)F)CC3)c(C#N)c2c(=O)n1CC#Cc1ccc(Cl)cc1-c1ccnc2c(C(=O)O)csc12` [compound 1464] was run?
A: Its IC50 is 13.4 nM.

Q: With `Cc1nc2cnc(C3CCCN(CC(F)F)C3)c(C#N)c2c(=O)n1CCCc1ccc(Cl)cc1-c1ccnc2c(C(=O)O)csc12` (centres unmarked) [compound 1571] as the molecule, how does the IC50 [3] read?
A: The IC50 was 20.5 nM.

Q: For `CCN(c1ncc2nc(C)n(CC#Cc3ccc(Cl)cc3-c3ccnc4c(C(=O)NS(=O)(=O)CC(F)(F)F)csc34)c(=O)c2c1C#N)C1CCN(C2COC2)CC1` [compound 1734], which IC50 [3] is on record?
A: Its IC50 is 19.4 nM.

Q: Which results are given for `Cc1cc(-c2cc(Cl)ccc2OCCn2c(C)nc3cnc(C4CCCC4(F)F)c(C#N)c3c2=O)c2scc(C(=O)O)c2n1` (centres unmarked) [compound 929]?
A: IC50 [2]: < 50 nM; IC50 [1]: 22.5 nM

Q: For `Cc1cc(-c2cc(Cl)ccc2OCCn2c(C)nc3cc(Cl)c(C(F)F)c(C#N)c3c2=O)c2scc(C(=O)O)c2n1` [compound 586], which IC50 [2] is on record?
A: Its IC50 is under 50 nM.

Q: And the IC50 [1]?
A: The IC50 was 50 nM.

Q: With `Cc1cc(-c2cc(Cl)ccc2OCCn2c(C)nc3c(CN4CCN(C)CC4)c(C(F)(F)F)cc(C#N)c3c2=O)c2scc(C(=O)O)c2n1` [compound 483] as the molecule, how does the IC50 [2] read?
A: The IC50 was under 50 nM.

Q: What about the IC50 [1] of the same molecule?
A: Its IC50 is 42.1 nM.

Q: Which results are given for `Cc1nc2cc(C(F)(F)F)cc(C#N)c2c(=O)n1CCOc1ccc(Cl)cc1-c1ccnc2c(C(=O)O)c(C(F)(F)F)sc12` [compound 666]?
A: IC50 [2]: 50 to 1000 nM; IC50 [1]: 268 nM

From patent publication US11286268B1, “EIF4E-inhibiting compounds and methods” (EFFECTOR THERAPEUTICS, INC., priority 2019, dated 2022)
